According to US10206936B2, “Oxidized lipids and treatment or prevention of fibrosis” (Vascular Biogenics Ltd., priority 2014, dated 2019):
Values joined by “and” are separate entries in the source; they are usually repeats but may differ in a detail not shown here. Identical values can stand only once.

Tests used:
[1] = system: NASH mouse model; test: NASH mouse model (STZ + HFD): liver inflammation and fibrosis histology; type: in vivo; conditions: NASH mice; for reduction of liver inflammation (inflammation score) vs vehicle: VB-201 4 mg/kg or telmisartan 10 mg/kg once daily for three weeks
Protocol: Neonatal male mice exposed to low-dose streptozotocin (STZ) develop liver steatosis with diabetes. Continuous high fat diet (HFD) increases lobular inflammation with foam cell-like macrophages, showing nonalcoholic steatohepatitis (NASH) pathology. NASH was induced in 40 male mice by a single subcutaneous injection of 200 μg per mouse of STZ two days after birth and feeding HFD [57 kcal % fat]) from four weeks of age. Vehicle, VB-201 (4 mg/kg), or telmisartan (10 mg/kg) as positive control, were administered once daily for three weeks, starting from six weeks of age. Mice were sacrificed at nine weeks of age.
Liver pathology was used to determine the effect of VB-201 on liver inflammation and fibrosis. Histology slides were stained with hematoxylin/eosin (H&E) to assess inflammation. The inflammation score was determined as follows:
Histology slides were stained with Sirius red to determine collagen content as a marker for the extent of fibrosis.

[2] = system: nephrectomized rats; test: 5/6 nephrectomy rat model: glomerular damage and sclerosis (PAS); type: in vivo, Sprague Dawley (SD) Rats; conditions: for Glomerular sclerosis, Global % (Mean ± S.E) / Glomerular sclerosis, Global & Segmental % (Mean ± S.E) / Glomerular sclerosis, Segmental % (Mean ± S.E): Nx rats, VB-201 4 mg/kg or telmisartan 10 mg/kg, 8 weeks; for reduction of damaged glomeruli vs Nx PBS 0.5% Eth / reduction of sclerotic glomeruli vs Nx PBS 0.5% Eth: VB-201 4 mg/kg or telmisartan 10 mg/kg oral, 7 weeks, evaluated at 8 weeks
Protocol: Male Sprague Dawley (SD) Rats (Harlan Laboratories, Israel) with an initial weight of 200 g were housed 2-3 per cage in IVC cages in dedicated HVAC (heat, ventilation, air conditioning) animal facility. The facility had no exposure to outside light and was maintained on automatic alternating cycles of 12 hours of light and 12 hours of dark. Animals were provided with a commercial rodent diet (Harlan Teklad TRM Rat/Mouse Diet) ad libitum and allowed free access to autoclaved water, supplied to each cage via polysulphone bottles with stainless steel sipper tubes. All animal work was approved by the Animal Care and Use Committee of Israel (IL-13-03-027).
(§1) Rats were divided into three groups: (1) Healthy rats (n=3) in group A, (2) Sham group—subjected to chirurgical process but without kidney mass reduction (n=3) in group B, and (3) the rest were induced with chronic renal failure (n=24). Chronic renal failure was induced by a two stage (5/6) nephrectomy (Nx), with subtraction firstly of about ⅔ of the left kidney by left flank incision and, one week later, complete removal of the right kidney. General anesthesia consisted of intraperitoneal injection of ketamine 100 mg/kg and xylazine 20 mg/kg (0.85 ml ketamine+0.15 ml xylazine for each ml preparation; 1 μl/g BW was injected I.P).
One week following the second surgery, rats were randomly assigned to the following experimental groups:
Nephrectomized, orally administered with VB-201 4 mg/kg (n=8); and
Nephrectomized, orally administered with telmisartan 10 mg/kg as positive control (n=8).
(§2) Body weight (BW) was monitored throughout the study and rats were treated by oral gavage according to their body weight for 7 weeks. Rats were sacrificed by CO2 inhalation 8 weeks from removal of the right kidney (2nd surgery).
Upon sacrifice, at 8 weeks, kidneys were collected, weighed and fixed in 4% formaldehyde.
For light microscopy, paraffin-embedded tissue slides of 4 μm were stained with Periodic Acid-Schiff (PAS) reagent.
Glomerulosclerosis was assessed by PAS-stained sections using a semiquantitative scoring system. The extent of glomerulosclerosis was evaluated by examining mostly 100 randomly selected glomeruli at a magnification of ×400 and applying a score system according to the percentage of sclerosed glomerular area. The score was graded from 0 to 4: (0=0% area; 1=1-25%; 2=26-50%, 3=51-75%, 4=76% and above). The mean of all scored glomeruli was presented. Moreover, the extent of global and segmental glomerulosclerosis was evaluated in the same glomeruli, where <80% sclerosis was referred to as segmental and >80% was referred to as global.
The glomerular area of mostly 100 randomly selected glomeruli at a magnification of ×100 was quantitated by counting squares covered by glomeruli area using a grid and the mean glomeruli area was calculated.
Glomeruli were evaluated for their fibrosis extent by scoring and by calculation of the percent of glomeruli having segmental sclerosis, global sclerosis and the sum of global and segmental sclerotic glomeruli. Moreover, the area of the glomeruli was calculated and the percent of hypertrophied glomeruli was calculated. Damaged glomeruli included hypertrophied (at least ×1.5 from normal area) and or sclerotic glomeruli.

[3] = system: nephrectomized rats; test: 5/6 nephrectomy rat model: ED-1/CD68+ monocyte/macrophage infiltration, immunohistochemistry; type: in vivo, Sprague Dawley (SD) Rats; conditions: VB-201 4 mg/kg or telmisartan 10 mg/kg, 8 weeks after surgery; for ED-1/CD68+ Glomerular monocytes/macrophages (Mean ± S.E) / ED-1/CD68+ Interstitial monocytes/macrophages (Mean ± S.E): Nx rats
Source text: as §1, §2
Renal tissues were fixed in 4% formaldehyde and embedded in paraffin. The paraffin-embedded tissues were then cut to form tissue slides of 4 μm. Immunohistochemistry of the paraffin-embedded tissue slides was analyzed using antibodies in the following concentration: monoclonal mouse anti rat CD-68 (ED-1, Serotec MCA341) 1:25. For quantitation of interstitial CD68+ staining, the number of positive cells was counted in 20 randomly selected non-overlapping fields per animal, and the mean value was presented.

[4] = system: Collagen IV; test: 5/6 nephrectomy rat model: kidney Collagen IV mRNA, real-time PCR; type: in vivo, Sprague Dawley (SD) Rats; conditions: kidney of Nx rats, 8 weeks; for reduction of Collagen IV mRNA expression vs Nx PBS 0.5% Eth: VB-201 4 mg/kg or telmisartan 10 mg/kg; for Collagen IV relative mRNA expression (mean ± SEM): normalized to TBP, relative to Sham PBS 0.5% Eth
Source text: as §1, §2
(§3) Kidney RNA was extracted with an RNeasy Fibrous Tissue Mini kit (Qiagen) and after DNAse I treatment, single-stranded cDNA was synthesized from 2 μg total RNA using the qScript cDNA Synthesis Kit (Quanta Biosciences) and diluted for real-time PCR. The expression of collagen 4a, fibronectin and TGFβ was quantified using the 7300 Real Time PCR System (Applied Biosystems). The assay was performed according to manufacturer instructions using the primers (Assay ID) represented at the table below supplied by Applied Biosystems. Data were normalized to the reference gene TATA-box Binding Protein (TBP) and presented as relative mRNA levels compared with Sham PBS 0.5% Eth treatment (Table 1).

[5] = system: TGF-β; test: 5/6 nephrectomy rat model: kidney TGF-β mRNA, real-time PCR; type: in vivo, Sprague Dawley (SD) Rats; conditions: kidney of Nx rats, 8 weeks; for reduction of TGF-β mRNA expression vs Nx PBS 0.5% Eth: VB-201 4 mg/kg or telmisartan 10 mg/kg; for TGF-β relative mRNA expression (mean ± SEM): normalized to TBP, relative to Sham PBS 0.5% Eth
Source text: as §1, §2, §3

Structure (SMILES)	decrease of extent of liver fibrosis (Sirius red fibrosis area) vs vehicle ([1]; VB-201 4 mg/kg once daily for three weeks)	reduction of liver inflammation (inflammation score) vs vehicle [1] [%]	Glomerular sclerosis, Global % (Mean ± S.E) [2] [%]	Glomerular sclerosis, Global & Segmental % (Mean ± S.E) [2] [%]	Glomerular sclerosis, Segmental % (Mean ± S.E) [2] [%]	reduction of damaged glomeruli vs Nx PBS 0.5% Eth [2] [%]	reduction of sclerotic glomeruli vs Nx PBS 0.5% Eth [2] [%]	ED-1/CD68+ Glomerular monocytes/macrophages (Mean ± S.E) [3]	ED-1/CD68+ Interstitial monocytes/macrophages (Mean ± S.E) [3]	reduction of number of glomerular monocytes/macrophages vs Nx PBS 0.5% Eth [3] [%]	reduction of number of interstitial monocytes/macrophages vs Nx PBS 0.5% Eth [3] [%]	reduction of Collagen IV mRNA expression vs Nx PBS 0.5% Eth [4] [%]	Collagen IV relative mRNA expression (mean ± SEM) [4]	reduction of TGF-β mRNA expression vs Nx PBS 0.5% Eth [5] [%]	TGF-β relative mRNA expression (mean ± SEM) [5]
CCCCCCCCCCCCCCCCOCC(COP(=O)([O-])OCC[N+](C)(C)C)OCCCCC(=O)O (centres unmarked) [VB-201, 1-hexadecyl-2-(4′-carboxybutyl)-glycero-3-phosphocholine]	about 34%	65	5.4 ± 3.22	31.8 ± 4.92	26.5 ± 4.39	29	34	2.113±0.374 Cells/Glomeruli and 2.113 Cells/Glomeruli	269.25±25.41 Cells/mm^2 and 269.3 Cells/mm^2	42	49	42	4.3±0.33	37	5.3±0.33
CCCc1nc2c(C)cc(-c3nc4ccccc4n3C)cc2n1Cc1ccc(-c2ccccc2C(=O)O)cc1 [telmisartan, reference compound]		77	1.9 ± 1.60	21.0 ± 5.45	19.1 ± 4.30	31	57	3.185±0.427 Cells/Glomeruli and 3.185 Cells/Glomeruli	421.0±61.77 Cells/mm^2 and 421.0 Cells/mm^2	13	20	41	4.4±0.23	44	4.7±0.52
